According to ChEMBL document CHEMBL5584313, “Design and Synthesis of 7-Oxabicyclo[2.2.1]heptane-2,3-dicarboxylic Acid Derivatives as PP5 Inhibitors To Reverse Temozolomide Resistance in Glioblastoma Multiforme” (J Med Chem, 2024):
Calls of active or inactive are those of the source. No cut-off for these calls is given here.

Tests used:
[1] = Inhibition of PP2A (unknown origin)
[2] = Aqueous stability of compound assessed as compound remaining measured at 240 mins by HPLC assay; format: physicochemical; settings: aqueous solution, read-out: Stability
U-87 MG [3] = experiment: Induction of apoptosis in human U-87 MG cells assessed as S phase cells at 25 uM incubated for 24 hrs in presence of TMZ by propidium iodide staining based flow cytometry analysis (reference value: 29.4%); format: functional, U-87MG ATCC
U-87 MG [4] = experiment: Antitumor activity against human U-87 MG cells xenografted in BALB/c nude mouse assessed as tumor growth retardation at 40 mg/kg, po administered every other day for 18 days; format: functional, organism-based; settings: U-87MG ATCC, time 18.0 day
U-87 MG [5] = experiment: Induction of apoptosis in human U-87 MG cells assessed as G0/G1 phase cells at 25 uM incubated for 24 hrs by propidium iodide staining based flow cytometry analysis (reference value: 58.8%); format: functional, U-87MG ATCC
U-87 MG [6] = experiment: Cytotoxicity against human U-87 MG cells incubated for 48 hrs by CCK8 assay; format: functional, cell-based, U-87MG ATCC
U-87 MG [7] = experiment: Induction of apoptosis in human U-87 MG cells assessed as S phase cells at 25 uM incubated for 24 hrs by propidium iodide staining based flow cytometry analysis (reference value: 29.4%); format: functional, U-87MG ATCC
U-87 MG [8] = experiment: Induction of apoptosis in human U-87 MG cells assessed as G2/M phase cells at 25 uM incubated for 24 hrs in presence of TMZ by propidium iodide staining based flow cytometry analysis (reference value: 11.9%); format: functional, U-87MG ATCC
U-87 MG [9] = experiment: Induction of apoptosis in human U-87 MG cells assessed as G0/G1 phase cells at 25 uM incubated for 24 hrs in presence of TMZ by propidium iodide staining based flow cytometry analysis (reference value: 58.8%); format: functional, U-87MG ATCC
U-87 MG [10] = experiment: Induction of apoptosis in human U-87 MG cells assessed as G2/M phase cells at 25 uM incubated for 24 hrs by propidium iodide staining based flow cytometry analysis (reference value: 11.9%); format: functional, U-87MG ATCC

| Structure (SMILES) | IC50 [1] | remaining at 4 h [2] | other results |
| --- | --- | --- | --- |
| O=C(O)[C@@H]1[C@H](C(=O)N2CCC2)[C@H]2CC[C@@H]1O2 |  | 33.8% |  |
| Cn1nnc2c(C(N)=O)ncn2c1=O [TEMOZOLOMIDE] |  |  | Activity (U-87 MG [3]): 69.6%; Activity (U-87 MG [4]): Active; Activity (U-87 MG [5]): 54.5%; IC50 (U-87 MG [6]): > 200000 nM; Activity (U-87 MG [7]): 31.5%; Activity (U-87 MG [8]): 7.4%; Activity (U-87 MG [9]): 37.7%; Activity (U-87 MG [10]): 13.5% |
| O=C(Nc1ccccc1)[C@@H]1[C@H](C(=O)O)[C@H]2CC[C@@H]1O2 |  | 74.5% |  |
| O=C(NC1CCCCC1)[C@@H]1[C@H](C(=O)O)[C@H]2CC[C@@H]1O2 |  | 73.2% |  |
| C[C@@]12C(=O)OC(=O)[C@]1(C)[C@H]1CC[C@@H]2O1 [CANTHARIDIN] | 160 nM |  |  |

Continued, in another order:

| IC50 [1] | remaining at 4 h [2] | Structure (SMILES) | other results |
| --- | --- | --- | --- |
| 3000 nM |  | O=C1OC(=O)C2C3CCC(O3)C12 (configuration not stated) |  |
|  | 80.3% | O=CN1CCN(C(=O)[C@@H]2[C@H](C(=O)O)[C@H]3CC[C@@H]2O3)CC1 |  |
| 1.5 nM |  | C[C@@](O)(/C=C/[C@H]1CC=CC(=O)O1)[C@@H](C[C@@H](O)\C=C/C=C\C=C\CO)OP(=O)(O)O [FOSTRIECIN] |  |
|  | 72.2% | O=C(O)[C@@H]1[C@H](C(=O)NC2CCCC2)[C@H]2CC[C@@H]1O2 |  |
|  | 46.4% | O=C(O)[C@H]1[C@@H](C(=O)N2Cc3ccccc3C2)[C@@H]2CC[C@H]1O2 |  |
